Consider two compounds from paper PMC5095920 (Biochemical Journal, 2016).

This assay has as its target T1, HemQ (Staphylococcus aureus, UniProt Q2YS77).
T1 sequence (Q2YS77 1-250): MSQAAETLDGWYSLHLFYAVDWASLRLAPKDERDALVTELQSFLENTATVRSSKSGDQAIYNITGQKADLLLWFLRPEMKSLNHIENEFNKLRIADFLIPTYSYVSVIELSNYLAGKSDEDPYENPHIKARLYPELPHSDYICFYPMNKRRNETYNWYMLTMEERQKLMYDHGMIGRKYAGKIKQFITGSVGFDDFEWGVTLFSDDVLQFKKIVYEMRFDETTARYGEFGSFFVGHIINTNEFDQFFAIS
Briefly: co-purification on affinity column, absorption spectroscopy. Type of assay: binding. The following applies: porphyrin added before affinity chromatography, pH 8.0.

As to `C=CC1=C(C)c2cc3[nH]c(cc4nc(cc5[nH]c(cc1n2)c(C)c5CCC(=O)O)C(CCC(=O)O)=C4C)c(C)c3C=C` [protoporphyrin IX], the “co-purification on affinity column, absorption spectroscopy” value is “HemQ that was loaded with bound haem, protoporphyrin IX, and coproporphyrin III”. Then `CC1=C(CCC(=O)O)c2cc3nc(cc4[nH]c(cc5[nH]c(cc1n2)c(C)c5CCC(=O)O)c(CCC(=O)O)c4C)C(CCC(=O)O)=C3C` [coproporphyrin III], with “HemQ that was loaded with bound haem, protoporphyrin IX, and coproporphyrin III”.
